Experimental data reported in patent US11109593B2, “Isoxazolin-5-one derivative and herbicide containing same as active ingredient” (HOKKO CHEMICAL INDUSTRY CO., LTD., priority 2017, dated 2021).

System: Scirpus juncoides
Experiment: Test Example 2: herbicidal effect test by treatment during growing period in paddy rice cultivation (seven days after seeding)
Type: in vivo
Conditions: 120 g/10a active ingredient, assessed 14 days after treatment, dry weight vs untreated area
Method in brief: (§1)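 Seeds sown 0–1 cm deep in puddled, fertilised paddy soil with about 3 cm standing water in a glass greenhouse. Diluted emulsion dropped into the water seven days after seeding at 120 g active ingredient per 10 ares. Herbicidal rate (%) from mean dry weight vs untreated, duplicate, 14 days after treatment.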

| Structure (SMILES) | Herbicidal rate (%) Scirpus juncoides [%] |
| --- | --- |
| CCN(CC)C(=O)n1oc(=O)c(Cc2ccccc2NS(=O)(=O)C(F)(F)F)c1C [Compound 1-248] | 90 |
| COCC(C)n1oc(=O)c(Cc2ccccc2N(C(=O)C2CC2)S(=O)(=O)C(F)(F)F)c1C (stereo not drawn) [Compound 1-412] | 90 |
| CSCCn1oc(=O)c(Cc2ccccc2N(C(C)=O)S(=O)(=O)C(F)(F)F)c1C [Compound 1-305] | 90 |

System: Echinochloa crus-galli
Experiment: as above
Type: in vivo
Conditions: 120 g/10a active ingredient, assessed 14 days after treatment, dry weight vs untreated area
Method in brief: as §1

| Structure (SMILES) | Herbicidal rate (%) Echinochloa crus-galli [%] |
| --- | --- |
| CCN(CC)C(=O)n1oc(=O)c(Cc2ccccc2NS(=O)(=O)C(F)(F)F)c1C [Compound 1-248] | 40 |
| COCC(C)n1oc(=O)c(Cc2ccccc2N(C(=O)C2CC2)S(=O)(=O)C(F)(F)F)c1C (stereo not drawn) [Compound 1-412] | 90 |
| CSCCn1oc(=O)c(Cc2ccccc2N(C(C)=O)S(=O)(=O)C(F)(F)F)c1C [Compound 1-305] | 90 |

System: broad leaf weeds (Lindernia pyxidaria and Monochoria vaginalis)
Experiment: as above
Type: in vivo
Conditions: Lindernia pyxidaria, 120 g/10a active ingredient, assessed 14 days after treatment, dry weight vs untreated area
Method in brief: as §1

| Structure (SMILES) | Herbicidal rate (%) Lindernia pyxidaria [%] |
| --- | --- |
| CCN(CC)C(=O)n1oc(=O)c(Cc2ccccc2NS(=O)(=O)C(F)(F)F)c1C [Compound 1-248] | 90 |
| COCC(C)n1oc(=O)c(Cc2ccccc2N(C(=O)C2CC2)S(=O)(=O)C(F)(F)F)c1C (stereo not drawn) [Compound 1-412] | 90 |
| CSCCn1oc(=O)c(Cc2ccccc2N(C(C)=O)S(=O)(=O)C(F)(F)F)c1C [Compound 1-305] | 90 |

Same assay, conditions: Monochoria vaginalis, 120 g/10a active ingredient, assessed 14 days after treatment, dry weight vs untreated area

| Structure (SMILES) | Herbicidal rate (%) Monochoria vaginalis [%] |
| --- | --- |
| CCN(CC)C(=O)n1oc(=O)c(Cc2ccccc2NS(=O)(=O)C(F)(F)F)c1C [Compound 1-248] | 90 |
| COCC(C)n1oc(=O)c(Cc2ccccc2N(C(=O)C2CC2)S(=O)(=O)C(F)(F)F)c1C (stereo not drawn) [Compound 1-412] | 90 |
| CSCCn1oc(=O)c(Cc2ccccc2N(C(C)=O)S(=O)(=O)C(F)(F)F)c1C [Compound 1-305] | 90 |

System: Echinochloa crus-galli
Experiment: Test Example 4: herbicidal effect test by treatment of leave and stem in dry field farming (seven days after seeding)
Type: in vivo
Conditions: 120 g/10a active ingredient; emulsion sprayed seven days after seeding; evaluated 14 days after treatment
Method in brief: (§2)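 Twenty seeds per species were mixed into the top 1 cm of alluvial soil in 36 cm^2 pots; emulsions were sprayed seven days after seeding at 100 L per 10 ares (120 g active ingredient per 10 ares). Herbicidal rate (%) = {1 − treated/untreated mean dry weight} × 100, 14 days after treatment, duplicate.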

| Structure (SMILES) | herbicidal effect (herbicidal rate), Echinochloa crus-galli [%] |
| --- | --- |
| CCN(CC)C(=O)n1oc(=O)c(Cc2ccccc2NS(=O)(=O)C(F)(F)F)c1C [Compound 1-248] | 80 |
| COCC(C)n1oc(=O)c(Cc2ccccc2N(C(=O)C2CC2)S(=O)(=O)C(F)(F)F)c1C (stereo not drawn) [Compound 1-412] | 90 |
| CSCCn1oc(=O)c(Cc2ccccc2N(C(C)=O)S(=O)(=O)C(F)(F)F)c1C [Compound 1-305] | 90 |

System: Chenopodium album
Experiment: as above
Type: in vivo
Conditions: 120 g/10a active ingredient; emulsion sprayed seven days after seeding; evaluated 14 days after treatment
Method in brief: as §2

| Structure (SMILES) | herbicidal effect (herbicidal rate), Chenopodium album [%] |
| --- | --- |
| CCN(CC)C(=O)n1oc(=O)c(Cc2ccccc2NS(=O)(=O)C(F)(F)F)c1C [Compound 1-248] | 0 |
| COCC(C)n1oc(=O)c(Cc2ccccc2N(C(=O)C2CC2)S(=O)(=O)C(F)(F)F)c1C (stereo not drawn) [Compound 1-412] | 40 |
| CSCCn1oc(=O)c(Cc2ccccc2N(C(C)=O)S(=O)(=O)C(F)(F)F)c1C [Compound 1-305] | 40 |

System: southern crabgrass
Experiment: as above
Type: in vivo
Conditions: 120 g/10a active ingredient; emulsion sprayed seven days after seeding; evaluated 14 days after treatment
Method in brief: as §2

| Structure (SMILES) | herbicidal effect (herbicidal rate), southern crabgrass [%] |
| --- | --- |
| CCN(CC)C(=O)n1oc(=O)c(Cc2ccccc2NS(=O)(=O)C(F)(F)F)c1C [Compound 1-248] | 40 |
| COCC(C)n1oc(=O)c(Cc2ccccc2N(C(=O)C2CC2)S(=O)(=O)C(F)(F)F)c1C (stereo not drawn) [Compound 1-412] | 90 |
| CSCCn1oc(=O)c(Cc2ccccc2N(C(C)=O)S(=O)(=O)C(F)(F)F)c1C [Compound 1-305] | 90 |

System: Amaranthus viridis
Experiment: as above
Type: in vivo
Conditions: 120 g/10a active ingredient; emulsion sprayed seven days after seeding; evaluated 14 days after treatment
Method in brief: as §2

| Structure (SMILES) | herbicidal effect (herbicidal rate), Amaranthus viridis [%] |
| --- | --- |
| CCN(CC)C(=O)n1oc(=O)c(Cc2ccccc2NS(=O)(=O)C(F)(F)F)c1C [Compound 1-248] | 40 |
| COCC(C)n1oc(=O)c(Cc2ccccc2N(C(=O)C2CC2)S(=O)(=O)C(F)(F)F)c1C (stereo not drawn) [Compound 1-412] | 40 |
| CSCCn1oc(=O)c(Cc2ccccc2N(C(C)=O)S(=O)(=O)C(F)(F)F)c1C [Compound 1-305] | 40 |

System: Echinochloa crus-galli
Experiment: Test Example 3: herbicidal effect test by treatment of dry field farming soil (one day after seeding)
Type: in vivo
Conditions: 120 g/10a active ingredient, evaluated 14 days after treatment
Method in brief: (§3)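 Alluvial dry-field soil in pots, top 1 cm mixed with 20 seeds per weed species. One day after seeding, the water-diluted emulsion was sprayed onto the soil surface at 100 L per 10 ares (120 g active ingredient per 10 ares). Duplicate pots; herbicidal rate (%) from plant dry weight versus untreated, 14 days after treatment.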

| Structure (SMILES) | herbicidal rate, Echinochloa crus-galli [%] |
| --- | --- |
| CCN(CC)C(=O)n1oc(=O)c(Cc2ccccc2NS(=O)(=O)C(F)(F)F)c1C [Compound 1-248] | 70 |
| COCC(C)n1oc(=O)c(Cc2ccccc2N(C(=O)C2CC2)S(=O)(=O)C(F)(F)F)c1C (stereo not drawn) [Compound 1-412] | 90 |
| CSCCn1oc(=O)c(Cc2ccccc2N(C(C)=O)S(=O)(=O)C(F)(F)F)c1C [Compound 1-305] | 90 |

System: Chenopodium album
Experiment: as above
Type: in vivo
Conditions: 120 g/10a active ingredient, evaluated 14 days after treatment
Method in brief: as §3

| Structure (SMILES) | herbicidal rate, Chenopodium album [%] |
| --- | --- |
| CCN(CC)C(=O)n1oc(=O)c(Cc2ccccc2NS(=O)(=O)C(F)(F)F)c1C [Compound 1-248] | 60 |
| COCC(C)n1oc(=O)c(Cc2ccccc2N(C(=O)C2CC2)S(=O)(=O)C(F)(F)F)c1C (stereo not drawn) [Compound 1-412] | 90 |
| CSCCn1oc(=O)c(Cc2ccccc2N(C(C)=O)S(=O)(=O)C(F)(F)F)c1C [Compound 1-305] | 90 |

System: southern crabgrass
Experiment: as above
Type: in vivo
Conditions: 120 g/10a active ingredient, evaluated 14 days after treatment
Method in brief: as §3

| Structure (SMILES) | herbicidal rate, southern crabgrass [%] |
| --- | --- |
| CCN(CC)C(=O)n1oc(=O)c(Cc2ccccc2NS(=O)(=O)C(F)(F)F)c1C [Compound 1-248] | 80 |
| COCC(C)n1oc(=O)c(Cc2ccccc2N(C(=O)C2CC2)S(=O)(=O)C(F)(F)F)c1C (stereo not drawn) [Compound 1-412] | 90 |
| CSCCn1oc(=O)c(Cc2ccccc2N(C(C)=O)S(=O)(=O)C(F)(F)F)c1C [Compound 1-305] | 90 |

System: Amaranthus viridis
Experiment: as above
Type: in vivo
Conditions: 120 g/10a active ingredient, evaluated 14 days after treatment
Method in brief: as §3

| Structure (SMILES) | herbicidal rate, Amaranthus viridis [%] |
| --- | --- |
| CCN(CC)C(=O)n1oc(=O)c(Cc2ccccc2NS(=O)(=O)C(F)(F)F)c1C [Compound 1-248] | 50 |
| COCC(C)n1oc(=O)c(Cc2ccccc2N(C(=O)C2CC2)S(=O)(=O)C(F)(F)F)c1C (stereo not drawn) [Compound 1-412] | 90 |
| CSCCn1oc(=O)c(Cc2ccccc2N(C(C)=O)S(=O)(=O)C(F)(F)F)c1C [Compound 1-305] | 90 |

System: Scirpus juncoides
Experiment: Test Example 1: herbicidal effect test by treatment of rice paddy soil (immediately after seeding)
Type: in vivo
Conditions: 120 g/10a active ingredient, dry weight vs untreated area, 14 days after treatment
Method in brief: (§4)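 Pre-emergence paddy water application, 120 g a.i./10 ares, applied immediately post-seeding into ~3 cm flood; glasshouse; duplicate pots; dry weight at 14 d → % inhibition = (1 − treated/untreated) × 100.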

| Structure (SMILES) | Herbicidal rate (%) Scirpus juncoides [%] |
| --- | --- |
| CCN(CC)C(=O)n1oc(=O)c(Cc2ccccc2NS(=O)(=O)C(F)(F)F)c1C [Compound 1-248] | 50 |
| COCC(C)n1oc(=O)c(Cc2ccccc2N(C(=O)C2CC2)S(=O)(=O)C(F)(F)F)c1C (stereo not drawn) [Compound 1-412] | 90 |
| CSCCn1oc(=O)c(Cc2ccccc2N(C(C)=O)S(=O)(=O)C(F)(F)F)c1C [Compound 1-305] | 90 |

System: Echinochloa crus-galli
Experiment: as above
Type: in vivo
Conditions: 120 g/10a active ingredient, dry weight vs untreated area, 14 days after treatment
Method in brief: as §4

| Structure (SMILES) | Herbicidal rate (%) Echinochloa crus-galli [%] |
| --- | --- |
| CCN(CC)C(=O)n1oc(=O)c(Cc2ccccc2NS(=O)(=O)C(F)(F)F)c1C [Compound 1-248] | 60 |
| COCC(C)n1oc(=O)c(Cc2ccccc2N(C(=O)C2CC2)S(=O)(=O)C(F)(F)F)c1C (stereo not drawn) [Compound 1-412] | 90 |
| CSCCn1oc(=O)c(Cc2ccccc2N(C(C)=O)S(=O)(=O)C(F)(F)F)c1C [Compound 1-305] | 90 |

System: broad leaf weeds (Lindernia pyxidaria and Monochoria vaginalis)
Experiment: as above
Type: in vivo
Conditions: Lindernia pyxidaria, 120 g/10a active ingredient, dry weight vs untreated area, 14 days after treatment
Method in brief: as §4

| Structure (SMILES) | Herbicidal rate (%) Lindernia pyxidaria [%] |
| --- | --- |
| CCN(CC)C(=O)n1oc(=O)c(Cc2ccccc2NS(=O)(=O)C(F)(F)F)c1C [Compound 1-248] | 90 |
| COCC(C)n1oc(=O)c(Cc2ccccc2N(C(=O)C2CC2)S(=O)(=O)C(F)(F)F)c1C (stereo not drawn) [Compound 1-412] | 90 |
| CSCCn1oc(=O)c(Cc2ccccc2N(C(C)=O)S(=O)(=O)C(F)(F)F)c1C [Compound 1-305] | 90 |

Same assay, conditions: Monochoria vaginalis, 120 g/10a active ingredient, dry weight vs untreated area, 14 days after treatment

| Structure (SMILES) | Herbicidal rate (%) Monochoria vaginalis [%] |
| --- | --- |
| CCN(CC)C(=O)n1oc(=O)c(Cc2ccccc2NS(=O)(=O)C(F)(F)F)c1C [Compound 1-248] | 80 |
| COCC(C)n1oc(=O)c(Cc2ccccc2N(C(=O)C2CC2)S(=O)(=O)C(F)(F)F)c1C (stereo not drawn) [Compound 1-412] | 90 |
| CSCCn1oc(=O)c(Cc2ccccc2N(C(C)=O)S(=O)(=O)C(F)(F)F)c1C [Compound 1-305] | 90 |
